Assays:
Format in all cases: physicochemical
[1] = Non-reduced GX (NR-GX) analysis of HCCF and purification products; conditions: 2 weeks at 2° C.-8° C., bags without headspace
Experimental: (§1) Samples were stored frozen until analyzed. Once thawed, 400-600 μL of each sample was transferred to culture tubes and mixed in non-reducing sample buffer containing N-Ethylmaleimide (NEM). After being denatured and the free thiols being capped by NEM, the samples were analyzed using a Perkin Elmer Labchip® GXII (Perkin Elmer, Waltham, Mass.) to perform size fractionation and quantification. Using the Labchip® GXII, the protein and fragments were detected by laser-induced fluorescence and translated into gel-like images (bands) and electropherograms (peaks).
The high levels of impurities were first detected in the capture product and were carried through the subsequent steps in the process.

[2] = Antibody aggregation analysis (HP-SEC); conditions: EDTA 9.5, 19, 38 mM or Cystine 4 and 8 mM
Experimental: The percent of antibody aggregates was determined using standard size exclusion chromatography (HP-SEC) methods. An Agilent 1200 series system was used with a Tosoh Bioscience TSKgel G3000SW XL column (Tosoh Bioscience LLC, King of Prussia, Pa.) (7.8 mm×300 mm) at 1 mL/min flow rate using a mobile phase buffer of 0.1 M sodium phosphate, 0.1 M sodium sulfate, pH 6.8. The absorbance chromatography at 280 nm was used to quantify the results.

[3] = Antibody reduction potential assay (Vacuum/GX); conditions: EDTA 9.5, 19, 38 mM or Cystine 4 and 8 mM
Experimental: Bioreactor samples (1 mL) were obtained daily and centrifuged at 3000-4000 RPM and the supernatant was frozen immediately at −80° C. On the day prior to the assay, the samples were removed from −80° C. storage, thawed, and placed in a vacuum chamber at room temperature overnight to induce reduction of the monoclonal antibody without the interference of oxygen. After the vacuum hold, the samples were analyzed for protein fragmentation under non-reducing conditions using a BioAnalyzer system (Agilent Technologies) or a LABCHIP® GXII system (PerkinElmer) to detect antibody fragments resulting from the breakage of the antibody's interchain disulfide bonds. […]
as §1, with “Once thawed, 400-600 μL of each sample was transferred to culture tubes and mixed in non-reducing sample buffer containing N-Ethylmaleimide (NEM).” left out
Reduction potential, i.e. the potential of the molecule to be reduced under anaerobic condition, was measured by subjecting samples to vacuum analysis as described above followed addition of non-reducing sample buffer. […]

[4] = Free thiol quantitation in HCCF by disulfide mapping mass spectrometry; conditions: 2 mM cystine, 2 week hold, versus starting material
Experimental: The amount of free thiol in harvested cell culture fluid was determined by matching predicted masses of disulfide-linked peptides to observed masses from non-reducing Lys-C peptide mapping. Briefly, the sample was denatured and diluted prior to digestion with a serine protease. Following protease digestion, half of each reaction mixture was reduced by the addition of DTT. The digests were separated by RP-HPLC using a C18 column and analyzed using a UV-detector and an on-line mass spectrometer. Disulfide-bond linked peptides are only present in non-reducing runs and will disappear under reducing conditions.

reduction of mAb B in HCCF by the end of the hold (NR-GX) ([1]; 2 mM cystine): reduction had set in
reduction of mAb B in HCCF by the end of the hold (NR-GX) ([1]; 4 mM cystine): no signs of reduction
aggregation of sheared mAb E material after 8 days at 2-8° C. [2]: limited the extent of mAb aggregation
reduction potential at the time of harvest of sheared mAb E material [3]: no reduction potential
inter-chain free thiol in HCCF by the end of the hold [4]: higher level of inter-chain free thiol
SMILES: N[C@@H](CSSC[C@H](N)C(=O)O)C(=O)O [cystine, L-cystine]

Source: patent publication US20190112357A1, “PREVENTION OF PROTEIN DISULFIDE BOND REDUCTION” (MedImmune, LLC, priority 2016, published 2019)
